Experimental data: patent US20230366033A1, “METHODS FOR TREATING CANCERS WITH INHIBITORS TARGETING THE ROLE OF GRB2 IN DNA REPAIR” (Board of Regents, The University of Texas System, priority 2020, published 2023)

Key:
Assay type in all cases: cell-based
[1] = test system: GRB2-KO HeLa cells reconstituted with K109R mutant GRB2; assay: SRB assay of olaparib-induced cytotoxicity; details: Homo sapiens, GRB2-KO cells reconstituted with K109R GRB2, sulforhodamine B assay
From the text: (§1) FIGS. 7A-7F. GRB2 KO sensitizes cells to PARPi. (FIG. 7A) MRE11 depletion levels with two different shRNA (KD1 and KD2) in U2OS cells with normal level of GRB2 (Ctrl) and GRB2-knockout (KO). (FIG. 7B) DR-GFP reporter assay in MRE11 knockdown control (Ctrl) and GRB2-KO U2OS cells. (FIG. 7C) DR-GFP reporter assay in PTEN-knockdown and/or GRB2-KO U2OS cells. (FIG. 7D) SRB assay of olaparib-induced cytotoxicity in control HeLa cells, GRB2-KO cells and GRB2-KO cells reconstituted with WT or K109R mutant GRB2. IC50 values are shown. (FIG. 7E) Clonogenic assay evaluating the effect of a PARPi on colony formation of HeLa cells. Cells were treated with the indicated concentrations of the PARPi olaparib and cultured for 10 days, then the resulting colonies were visualized with crystal violet staining and counted by Gelcount instrument. Parental control (WT), GRB2-KO (KO), ^WTGRB2 (KO+GRB2) and ^K109RGRB2 (KO+K109R) reconstituted HeLa cells. For each concentration on the X-axis, the columns represent, from left to right, WT, GRB2 KO, KO+GRB2, and KO+K109R. ***, p≤0.001; NS, not significant. (FIG. 7F) Bar graph representing Annexin-V/propidium iodide combined labeling and flow cytometry analysis of olaparib-treated control (WT), GRB2-KO, reconstituted ^WTGRB2(KO+GRB2) and K109R mutant (KO+K109R) HeLa cells. Cells were treated with either DMSO or 50 μM olaparib for 72 h. For each treatment group on the X-axis, the columns represent, from left to right, WT, GRB2 KO, KO+GRB2, and KO+K109R. All data are representative of three independent experiments. The significance was analyzed by two-sided student's t-test. *, p≤0.05; **, p≤0.01; ***, p≤0.001; NS, not significant.
(§2) Cell culture. HEK293T, NIH3T3 and A431 cells (purchased from ATCC) and mouse embryonic fibroblasts (MEFs) and H2AX-KO MEFs (gifts from Andre Nussenzweig, Center for Cancer Research, National Cancer Institute) were maintained in Dulbecco's modified Eagle's high-glucose medium (DMEM). HeLa cells (ATCC) were maintained in RPMI 1640 medium, HAP1 cells (Horizon Discovery) were maintained in Iscove's Modified Dulbecco's medium. U2OS cells (ATCC) were maintained in McCoy's 5A medium. Media were supplemented with 10% (vol/vol) fetal bovine serum (FBS) and 1% antibiotic/antimycotic (Lonza) in a humidified incubator with 10% CO2. Stable HEK293T cells containing Strep-tagged GRB2 or GRB2 mutants were produced as described previously (Ahmed et al., 2013). The I-SecI reporter assay (a generous gift from Jeremy Stark, City of Hope) was performed as described previously(Gunn and Stark, 2012). The sulforhodamine B (SRB) cytotoxicity and colony formation assays were performed as described previously(Houl et al., 2019).

[2] = test system: GRB2-KO HeLa cells reconstituted with WT GRB2; assay: SRB assay of olaparib-induced cytotoxicity; details: Homo sapiens, GRB2-KO cells reconstituted with WT GRB2, sulforhodamine B assay
From the text: as §1, §2

[3] = test system: GRB2-KO HeLa cells; assay: SRB assay of olaparib-induced cytotoxicity; details: sulforhodamine B assay
From the text: as §1, §2

[4] = test system: control HeLa cells; assay: SRB assay of olaparib-induced cytotoxicity; details: Homo sapiens; WT control HeLa cells, sulforhodamine B assay
From the text: as §1, §2

[5] = test system: GRB2-KO HeLa cells; assay: Annexin V/PI staining assay, flow cytometry; details: 50 μM olaparib for 72 h
From the text: as §1
(§3) Annexin V/PI staining assay. To determine the percentage of olaparib-induced apoptotic cells, an Annexin V-propidium iodide (PI) staining assay was used according to the standard protocol (Life Technologies). […] After incubation for 15 min at room temperature in the dark, samples were analyzed on a flow cytometer (FACSCanto IL, BD Biosciences) for the detection of Annexin V- and PI-positive subpopulations. […]

[6] = test system: K109R mutant (KO+K109R) HeLa cells; assay: Annexin V/PI staining assay, flow cytometry; details: K109R GRB2 reconstituted cells, 50 μM olaparib for 72 h
From the text: as §1, §3

[7] = test system: control (WT) HeLa cells; assay: Annexin V/PI staining assay, flow cytometry; details: 50 μM olaparib for 72 h
From the text: as §1, §3

[8] = test system: GRB2-KO HeLa cells; assay: Clonogenic survival assay with olaparib; details: cultured for 10 days
From the text: as §1, with “significant. […]” for “significant. (FIG. 7F) Bar graph representing Annexin-V/propidium iodide combined labeling and flow cytometry analysis of olaparib-treated control (WT), GRB2-KO, reconstituted ^WTGRB2(KO+GRB2) and K109R mutant (KO+K109R) HeLa cells. Cells were treated with either DMSO or 50 μM olaparib for 72 h. For each treatment group on the X-axis, the columns represent, from left to right, WT, GRB2 KO, KO+GRB2, and KO+K109R. All data are representative of three independent experiments.”, “significant. […]” for “significant.”

[9] = test system: K109R GRB2 reconstituted HeLa cells; assay: Clonogenic survival assay with olaparib; details: cultured for 10 days
From the text: as §1, with “significant. […]” for “significant. (FIG. 7F) Bar graph representing Annexin-V/propidium iodide combined labeling and flow cytometry analysis of olaparib-treated control (WT), GRB2-KO, reconstituted ^WTGRB2(KO+GRB2) and K109R mutant (KO+K109R) HeLa cells. Cells were treated with either DMSO or 50 μM olaparib for 72 h. For each treatment group on the X-axis, the columns represent, from left to right, WT, GRB2 KO, KO+GRB2, and KO+K109R. All data are representative of three independent experiments.”, “significant. […]” for “significant.”

## O=C(c1cc(Cc2n[nH]c(=O)c3ccccc23)ccc1F)N1CCN(C(=O)C2CC2)CC1 [olaparib]
[1]
  IC50: 20 ± 3 µM
[2]
  IC50: 164 ± 47 µM
[3]; Homo sapiens, HeLa, GRB2-KO cells
  IC50: 18 ± 2.9 µM
[3]
  sensitivity to olaparib, GRB2-KO cells versus WT control cells: 7 times
[4]
  IC50: 124 ± 41 µM
[5]
  olaparib-induced apoptosis: 60%
[6]
  olaparib-induced apoptosis phenotype: failed to rescue the phenotype
[7]
  olaparib-induced apoptosis: 20%
[8]
  colony formation in response to olaparib: severe reduction in colony formation
[9]
  colony formation in response to olaparib: severe reduction in colony formation
